Test results reported in US20070191400A1, “Pharmaceutical compositions comprising anti-inflammatory quinazolinecarboxamide derivatives” (Rimonyx Pharmaceuticals Ltd., priority 2004, published 2007).
Values belong to the compound of their own block, whether it stands above or below them.

Experiments:
[1] = target: T1, Recombinant Human L-Selectin/IgG binding to heparin (Homo sapiens, UniProt P14151); experiment: Inhibition of L-selectin binding to heparin (ELISA, immobilized heparin-BSA); conditions: for IC50: compounds tested at 0.01 to 300 μM, representative results, read-out: IC-50, inhibition of L-Selectin binding to heparin; for inhibition at 30 µM: read-out: % Inhibition at 30 microMolar conc. (L-Selectin binding to heparin)
T1 construct: purchased Research and Development Systems 728-LS
T1 sequence (P14151 39-332 limits assumed): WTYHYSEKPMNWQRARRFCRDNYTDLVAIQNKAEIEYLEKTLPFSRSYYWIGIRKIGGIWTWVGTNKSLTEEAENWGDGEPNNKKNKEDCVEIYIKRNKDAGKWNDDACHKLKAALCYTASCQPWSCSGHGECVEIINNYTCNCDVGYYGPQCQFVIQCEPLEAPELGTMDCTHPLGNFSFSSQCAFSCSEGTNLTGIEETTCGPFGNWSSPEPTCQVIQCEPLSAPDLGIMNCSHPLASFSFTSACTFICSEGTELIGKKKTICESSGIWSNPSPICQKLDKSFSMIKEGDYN
Description: An in vitro assay was used to assess the ability of test compounds according to formula I to inhibit the interactions of L-selectin with HS-GAGs. The assay was suitable for determining the concentration required for 50% inhibition (IC-50) for each specific compound. In the assay, the GAG used was heparin. Thus, porcine intestinal mucosa heparin conjugated to Bovine Serum Albumin (Heparin-BSA; Sigma Cat. No. H0403) at 5 mg/ml in Phosphate-Buffered Saline (PBS; pH 6.5) was added to a 96-well polystyrene ELISA plate (NUNC Cat. No. 442404; 0.1 ml per well) and incubated over night at 4° C. Following the incubation, the plate was washed thoroughly, by immersion, with de-ionized water and PBS (pH 6.5). The ELISA plate was then blocked with BSA (ICN Cat. No.160069, 3%, 200 μl per well) for 1 hour at room temperature. Following blocking, the plate was washed with de-ionized water, and then with PBS (pH 6.5) containing Tween 20 (Sigma Cat. No. P-1379, 0.05%). Compounds were synthesized or purchased from suppliers of chemical compounds such as ChemDiv Labs (San Diego, Calif.), dissolved in DMSO, diluted in PBS and added to the wells at various concentrations in the range of 0.01 to 300 μM. Recombinant Human L-Selectin/IgG (Research and Development Systems Cat. No.728-LS) dissolved in PBS supplemented with BSA (0.1%) and calcium chloride (1 mM) was added to the ELISA plate (100 μl per well) and incubated for 60 minutes at room temperature with shaking. Following incubation, the plate was washed with de-ionized water and three times with PBS (pH 6.5) containing Tween 20. Anti-Human IgG Peroxidase Conjugate (1:5000; Sigma Product No. A8667) diluted in PBS supplemented with BSA (0.1%) and calcium chloride (1 mM) was added to the ELISA plate (100 μl per well) and incubated for 30 minutes at room temperature with shaking. The plate was then washed with de-ionized water and three times with PBS (pH 6.5) containing Tween 20. The peroxidase substrate chromogen tetramethyl benzidine (TMB; Dako Cat. No. S1599) was added (100 μl per well) to the ELISA plate and incubated at room temperature. After 15 minutes, ELISA Stop Solution (hydrochloric acid 1N, sulfuric acid 3N) was added (200 μl per well) to stop the peroxidase catalyzed colorimetric reaction. The Optical Density (OD) of the samples was measured at 450 nm using an ELISA plate reader (Dynatech MR5000). Data were analyzed with Graphpad Prism software and IC-50 values were established.

BALB/c mice [2] = experiment: Thioglycollate-induced leukocyte and neutrophil infiltration into mouse peritoneum; format: in vivo; conditions: 10 mg/kg i.p.
Description: BALB/c mice (Velaz, Prague; 6 weeks old, ˜20 g in weight, 15 mice/group) received intraperitoneal injection of an inhibitor compound in 0.2 ml DMSO/Tween/sterile saline 1 hour before administration of thioglycollate (Sigma). Control groups received vehicle and sham controls received no thioglycollate. Mice were injected intraperitoneally with 1 ml of 3% thioglycollate broth (Xie, X. et al., J. Biol. Chem., 275, 34818-34825, 2000). Mice were sacrificed after 3 hours, and the peritoneal cavities were lavaged with 5 ml of ice-cold saline containing 2 mM EDTA to prevent clotting. After red blood cell lysis, leukocytes were counted in a hemocytometer. Neutrophils were counted after staining with Türck's reagent (Merck, Darmstadt, Germany). Data was expressed as mean ±SEM, and statistical analysis was performed by Student t test. A value of p<0.05 was taken to denote statistical significance.

BALB/c mice [3] = experiment: Carrageenan-induced paw edema; format: in vivo, mouse
Description: Acute edema was induced in the left hind paw of BALB/c mice (12 mice/group) by injecting 0.02 ml of freshly prepared solution of 2% carrageenan (Sigma) after 60 min of test compound administration (Torres, S. R. et al., European Journal of Pharmacology 408: 199-211, 2000). […], which served as a control. Carrageenan was injected under the plantar region of […] and the paw thickness was measured at 2,4 and 24 hours after carrageenan challenge using a Mitutoyo engineer's micrometer expressed as the difference between right and left pad as mean ±SEM.

[4] = target: T2, CMV envelope glycoprotein B binding to immobilized heparin (Human cytomegalovirus, UniProt P06473); experiment: Inhibition of CMV envelope glycoprotein B binding to immobilized heparin (ELISA); conditions: for inhibition at 30 µM: read-out: % Inhibition at 30 microMolar conc. (CMV envelope glycoprotein B binding to immobilized heparin); for inhibition at 100 µM: read-out: % Inhibition at 100 microMolar conc. (CMV envelope glycoprotein B binding to immobilized heparin)
T2 construct: purchased Research Diagnostics, INC; RDI-RCMVAG-B
T2 sequence (P06473 32-906): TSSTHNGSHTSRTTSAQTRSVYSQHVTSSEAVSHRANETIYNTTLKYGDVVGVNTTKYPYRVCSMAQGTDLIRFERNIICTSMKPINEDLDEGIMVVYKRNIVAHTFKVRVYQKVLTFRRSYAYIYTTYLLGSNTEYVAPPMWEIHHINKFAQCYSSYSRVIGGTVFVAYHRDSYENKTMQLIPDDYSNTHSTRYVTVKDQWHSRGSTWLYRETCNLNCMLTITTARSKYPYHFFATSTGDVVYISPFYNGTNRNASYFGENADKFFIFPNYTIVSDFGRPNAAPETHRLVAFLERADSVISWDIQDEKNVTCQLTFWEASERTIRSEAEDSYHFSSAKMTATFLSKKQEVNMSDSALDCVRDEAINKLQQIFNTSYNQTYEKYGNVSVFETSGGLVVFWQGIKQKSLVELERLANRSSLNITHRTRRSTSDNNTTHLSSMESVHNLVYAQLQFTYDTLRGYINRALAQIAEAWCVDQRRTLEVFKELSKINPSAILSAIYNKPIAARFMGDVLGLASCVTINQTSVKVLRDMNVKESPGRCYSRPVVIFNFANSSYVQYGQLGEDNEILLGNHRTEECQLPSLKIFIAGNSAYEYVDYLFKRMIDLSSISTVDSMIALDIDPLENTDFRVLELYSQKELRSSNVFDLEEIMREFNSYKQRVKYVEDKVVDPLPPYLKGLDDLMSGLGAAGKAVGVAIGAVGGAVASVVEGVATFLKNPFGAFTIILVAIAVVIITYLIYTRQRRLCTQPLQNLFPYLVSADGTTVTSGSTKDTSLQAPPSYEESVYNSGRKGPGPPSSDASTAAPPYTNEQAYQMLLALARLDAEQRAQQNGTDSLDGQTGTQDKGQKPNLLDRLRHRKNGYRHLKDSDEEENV
Description: Porcine intestinal mucosa heparin conjugated to Bovine Serum Albumin (Heparin-BSA; Sigma Cat. No. H0403) at 5 mg/ml in Phosphate-Buffered Saline (PBS; pH 6.5) was added to a 96-well polystyrene ELISA plate (NUNC Cat. No. 442404; 0.1 ml per well) and incubated over night at 4° C. Following the incubation, the plate was washed consecutively, by immersion, with de-ionized water and PBS (pH 6.5). The ELISA plate was then blocked with BSA (ICN Cat. No. 160069, 3%, 200 μl per well) for 1 hour at room temperature. Following blocking, the plate was washed with de-ionized water, and then with PBS (pH 6.5) plus Tween 20 (0.05%). CMV envelope glycoprotein B (Research Diagnostics, INC. Cat. No. RDI-RCMVAG-B) dissolved in PBS (supplemented with BSA (0.1%)) was added to the ELISA plate (100 μl per well) and incubated for 60 minutes at room temperature with shaking. Following incubation, the plate was washed with de-ionized water and with PBS (pH 6.5) plus Tween. Mouse anti-human Cytomegalovirus gB antibody (Research Diagnostics, INC. Cat. No. RDI-CMVG Babm) diluted in PBS (supplemented with BSA(0.1%)), 1:2000, was added to the ELISA plate (100 μl per well) and incubated for 90 minutes at room temperature with shaking. Following the incubation, the plate was washed with de-ionized water and PBS (pH 6.5) plus Tween. Goat anti-Mouse IgG (H&L) Peroxidase Conjugated antibody (Chemicon International, Inc. Cat. No. AP124P) diluted in PBS (supplemented with BSA (0.1%)), 1:1000, was added to the ELISA plate (100 μl per well) and incubated for 30 minutes at room temperature with shaking. Following the incubation, the plate was washed with de-ionized water and with PBS (pH 6.5) plus Tween. The peroxidase substrate chromogen, TMB (Dako Cat. No. S1599) was added (100 μl per well) to the ELISA plate and incubated at room temperature. After 15 minutes, ELISA Stop Solution (hydrochloric acid iN, sulfuric acid 3N) was added (200 μl per well) to stop the peroxidase catalyzed colorimetric reaction. The Optical Density (OD) of the samples was measured at 450 nm using an ELISA plate reader (Dynatech MR5000).
The CMV envelope glycoprotein B (GBVP) binding assay described above was used to screen a synthetic chemical compound collection on 96-well plates. The compound collection was purchased from ChemDiv Inc. (San Diego, Calif.). […] Individual compounds at a final concentration of 30 or 100 μM were co-incubated with the GBVP on plates containing immobilized heparin and, following washing, bound GBVP was detected with anti-CMV GBVP antibody and secondary antibody conjugated to horseradish peroxidase, as described above. Following color development, the % inhibition compared to control (no compound) for every compound was determined. Compounds that inhibited at least 30% of the signal were scored as hits.

BALB/c mice [5] = experiment: Delayed-type hypersensitivity (DTH), oxazolone mouse ear-swelling test; format: in vivo; conditions: 25 mg/kg per os, 1 hr prior to challenge; 24 hours after challenge
Description: BALB/c mice (Velaz, Prague, Czech Republic; 8 weeks old; 15 animals per group) were sensitized by topical application of a 2% oxazolone (4-ethoxymethylene -2-phenyl-2-oxazoline-5-one; Sigma, St Louis, Mo.) solution in acetone/olive oil (4:1 vol/vol) to shaved abdomen (50 μl) and to each paw (5 μl) (Lange-Asschenfeldt B. et al., Blood 99:538-545, 2002). Five days after sensitization, right ears were challenged by topical application of 10 μl of a 1% oxazolone solution, whereas left ears were treated with vehicle alone. Compounds were administered 1 hr prior to challenge. The extent of inflammation was measured 24 hours after challenge, using the mouse ear-swelling test. Animals were numbered (tail marking) and weighed and the thickness of both ears was recorded with a constant-loading dial micrometer (Mitutoyo, Tokyo). The unpaired Student t-test was used for statistical analyses.

- % Inhibition at 30 microMolar conc. (L-Selectin binding to heparin) ([1]; 30 microMolar): 59%
Compound: 2-[[2-[[(3-chlorophenyl)methyl]thio]-3-pentyl-3,4-dihydro-4-oxo-N-(4-methylpiperazin -7-quinazolinecarboxamide [Compound 8]

Compound: O=C(NCCCN1CCOCC1)c1ccc2c(=O)n(-c3ccc(F)cc3)c(SCc3ccc(Cl)cc3)nc2c1 [Compound 1, 2-[[(4-chlorophenyl)methyl]thio]-3-(4-fluorophenyl)-3,4-dihydro-4-oxo-N-[3-(4-morpholinyl)propyl]-7-quinazolinecarboxamide]
- Leukocyte migration into the peritoneal cavity (BALB/c mice [2]; 1 hour before thioglycollate, 3 hours): inhibited efficiently
- Neutrophil accumulation in the peritoneal cavity (BALB/c mice [2]; 3 hours after thioglycollate): 48 % of control value
- Inhibition of paw edema (difference in paw thickness) (BALB/c mice [3]; 1 mg/kg oral, 24 hours after induction): inhibited paw edema
- inhibition at 30 µM [4]: 33%
- IC50 [1]: 7 ± 1 µM

Compound: Cc1ccc(CSc2nc3cc(C(=O)NCCCN4CCOCC4)ccc3c(=O)n2-c2ccc(F)cc2)cc1 [Compound 2, 2-[[(4-methylphenyl)methyl]thio]-3-(4-fluorophenyl)-3,4-dihydro-4-oxo-N-[3-(4-morpholinyl)propyl]-7-quinazolinecarboxamide]
- Inhibition of DTH (difference in ear thickness) (BALB/c mice [5]): inhibited DTH
- inhibition at 100 µM [4]: 86%
- IC50 [1]: 24 ± 1.2 µM

Compound: O=C(NCCCN1CCOCC1)c1ccc2c(=O)n(-c3ccc(F)cc3)c(SCc3cccc(F)c3)nc2c1 [Compound 3, 2-[[(3-fluorophenyl)methyl]thio]-3-(4-fluorophenyl)-3,4-dihydro-4-oxo-N-[3-(4-morpholinyl)propyl]-7-quinazolinecarboxamide]
- inhibition at 30 µM [4]: 85%
- inhibition at 100 µM [4]: 88%
- IC50 [1]: 22 ± 1.2 µM

- inhibition at 30 µM [1]: 50%
- inhibition at 100 µM ([1]; read-out: % Inhibition at 100 microMolar conc. (L-Selectin binding to heparin)): 52%
Compound: COCCNC(=O)c1ccc2c(=O)n(Cc3ccco3)c(SCc3cc(=O)n4ccccc4n3)nc2c1 [Compound 5, 2-[[(4-oxo-4H-pyrido [1,2-a]pyrimidin-2-yl)methyl]thio]-3-(2-furanylmethyl) -3,4-dihydro-4-oxo-N-(2-methoxyethyl)-7-quinazolinecarboxamide]

- inhibition at 30 µM [1]: 30%
Compound: O=C(CSc1nc2cc(C(=O)NCCCN3CCCCC3)ccc2c(=O)n1CC1CCCO1)c1ccccc1 (stereo not shown) [Compound 6, 2-[(2-oxo-2-phenylethyl)thio]-3-[(tetrahydro-2-furanyl)methyl]-3,4-dihydro-4-oxo -N-[3-(1-piperidinyl)propyl]-7-quinazolinecarboxamide]

- inhibition at 30 µM [1]: 83%
Compound: CCCCCn1c(SCc2ccncc2)nc2cc(C(=O)N3CCN(C(=O)OCC)CC3)ccc2c1=O [Compound 7, 4-[[3,4-dihydro-4-oxo-3-pentyl-2-[(4-pyridinylmethyl)thio]-7-quinazolinyl]carbonyl]-1-piperazinecarboxylic acid ethyl ester]

- IC50 [1]: 21 ± 1.6 µM
Compound: CC(C)Cn1c(S)nc2cc(C(=O)NCCCn3ccnc3)ccc2c1=O [Compound 9, 2-mercapto-3-(2-methylpropyl-3)-3,4-dihydro-4-oxo-N-[3-(1N-imidazol-1-yl)propyl]-7-quinazolinecarboxamide]
- Inhibition of paw edema (difference in paw thickness) (BALB/c mice [3]; 50 mg/kg oral, measured after 24 hours): inhibited paw edema

- IC50 [1]: 22 ± 1.5 µM
Compound: CN1CCN(C(=O)c2ccc3c(=O)n(-c4ccccc4)c(SCC(=O)C(C)(C)C)nc3c2)CC1 [Compound 10]
